One may read the IC50 as the point on the concentration scale where inhibition reaches its midpoint.

T1 sequence (Q9UM07 2-663): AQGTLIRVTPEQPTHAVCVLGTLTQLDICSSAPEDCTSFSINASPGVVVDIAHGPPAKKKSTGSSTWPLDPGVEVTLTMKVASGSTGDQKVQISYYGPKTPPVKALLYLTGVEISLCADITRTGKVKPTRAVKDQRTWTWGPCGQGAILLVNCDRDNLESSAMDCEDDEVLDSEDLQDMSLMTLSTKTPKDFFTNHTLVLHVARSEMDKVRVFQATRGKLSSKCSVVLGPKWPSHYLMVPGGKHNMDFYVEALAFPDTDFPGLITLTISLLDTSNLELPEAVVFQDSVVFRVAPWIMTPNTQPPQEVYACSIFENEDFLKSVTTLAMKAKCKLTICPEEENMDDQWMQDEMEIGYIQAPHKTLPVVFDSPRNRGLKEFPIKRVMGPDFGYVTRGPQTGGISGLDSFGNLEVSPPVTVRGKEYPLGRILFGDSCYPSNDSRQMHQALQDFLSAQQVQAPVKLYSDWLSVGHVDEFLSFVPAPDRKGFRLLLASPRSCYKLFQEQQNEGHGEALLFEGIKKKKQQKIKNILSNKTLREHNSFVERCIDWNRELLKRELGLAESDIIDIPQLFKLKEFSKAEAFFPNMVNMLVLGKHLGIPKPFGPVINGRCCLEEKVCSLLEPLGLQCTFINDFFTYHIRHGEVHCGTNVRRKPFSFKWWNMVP

The assay has as its target T1, human PAD4 (Homo sapiens, UniProt Q9UM07).
T1 construct: human PAD4 (NM_012387), A2-P663, was PCR amplified; His-SUMO (N, cleaved yes); made in house; host or cells: E. coli BL21(DE3)
As to the kind of experiment: In vitro PAD4 BAEE biochemical assay. Conditions: BAEE substrate 3 mM, 5 nM PAD4, 2 mM calcium chloride; geometric mean of multiple experiments. The essentials:
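Assay was run at 25 °C using 3 mM BAEE and 5 nM human PAD4 after a 30 min compound preincubation; ammonia produced over 2 h was quantified by OPA-derived fluorescence. Full inhibition was defined by 50 µM BB-Cl-Amidine, and IC50 came from variable-slope nonlinear regression.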
For the compound `COc1cc(C(=O)N2CC[C@@H](OC)[C@@H](N)C2)cc2nc(-c3cc4ccc5nc4n3CCCCCC[C@](C)(c3ccccn3)C(=O)N[C@@H]5C)n(C)c12` [Example 861, (8~{R},11~{R})-17-[5-[(3~ {S},4~{R})-3-amino-4-methoxy-piperidine-1-carbonyl]-7-methoxy-1-methyl-benzimidazol-2-yl]-8,11-dimethyl-8-(2-pyridyl)-1,10,19-triazatricyclo[10.5.2.0^{15,18}] nonadeca-12(19),13,15(18), 16-tetraen-9-one], the concentration for half-maximal inhibition (IC50) stood at 0.039 µM.

`COc1cc(C(=O)N2CC[C@@H](OC)[C@@H](N)C2)cc2nc(-c3cc4ccc5nc4n3CCCCCC[C@@](C)(c3ccccn3)C(=O)N[C@@H]5C)n(C)c12` [Example 862, (8~{S},11~{R})-17-[5-[(3~{S}, 4~{R})-3-amino-4-methoxy-piperidine-1-carbonyl]-7-methoxy-1-methyl-benzimidazol-2-yl]-8,11-dimethyl-8-(2-pyridyl)-1,10,19-triazatricyclo[10.5.2.0^{15,18}] nonadeca-12(19), 13,15(18),16-tetraen-9-one]: the IC50 worked out at 0.078 µM.

Regarding `COc1nccc2c1C(=O)N[C@H](C)c1ccc3cc(-c4nc5cc(C(=O)N6CC[C@@H](OC)[C@@H](N)C6)cc(OC)c5n4C)n(c3n1)CCCCC2` [Example 863, (2~{R})-17-[5-[(3~{S},4~{R})-3-amino-4-methoxy-piperidine-1-carbonyl]-7-methoxy-1-methyl-benzimidazol-2-yl]-6-methoxy-2-methyl-3,7,16,22-tetrazatetracyclo[14.5.2.0^ {5,10}.0^{19,23}]tricosa-1(22), 5(10),6,8,17,19(23),20-heptaen-4-one], the IC50 worked out at 0.069 µM. For `COC[C@]12C[C@H]1CCCCCn1c(-c3nc4cc(C(=O)N5CC[C@@H](OC)[C@@H](N)C5)cc(OC)c4n3C)cc3ccc(nc31)[C@@H](C)NC2=O` [Example 864, (2~{R},5~{S),7~{R})-14-[5-[(3~{S},4~{R})-3-amino-4-methoxy-piperidine-1-carbonyl]-7-methoxy-1-methyl-benzimidazol-2-yl]-5-(methoxymethyl)-2-methyl-3,13,19-triazatetracyclo [11.5.2.0^{5,7}.0^{16,20}] icosa-1(19),14,16(20), 17-tetraen-4-one], the IC50 amounted to 0.068 µM. Take `COC[C@@]12C[C@@H]1CCCCCn1c(-c3nc4cc(C(=O)N5CC[C@@H](OC)[C@@H](N)C5)cc(OC)c4n3C)cc3ccc(nc31)[C@@H](C)NC2=O` [Example 865, (2~{R},5~{R},7~{S})-14-[5-[(3~{S},4~{R})-3-amino-4-methoxy-piperidine-1-carbonyl]-7-methoxy-1-methyl-benzimidazol-2-yl]-5-(methoxymethyl)-2-methyl-3,13,19-triazatetracyclo[11.5.2.0^ {5,7}.0^{16,20}]icosa-1(19), 14,16(20),17-tetraen-4-one]: the IC50 came to 0.23 µM. The result for `COc1cc(C(=O)N2CC[C@@H](OC)[C@@H](N)C2)cc2nc(-c3cc4ccc5nc4n3CCCc3cccc(c3)CC(=O)N[C@@H]5C)n(C)c12` [Example 866, (13˜{R})-19-[5-[(3˜{S},4˜{R})-3-amino-4-methoxy-piperidine-1-carbonyl]-7-methoxy-1-methyl-benzimidazol-2-yl]-13-methyl-1,12,21-triazatetracyclo[12.5.2.1^{5,9}.0^{17,20}]docosa-5,7,9(22),14(21),15,17(20),18-heptaen-11-one] reads 0.079 µM. The result for `COc1cc(C(=O)N2CC[C@@H](OC)[C@@H](N)C2)cc2nc(-c3cc4ccc5nc4n3CC(F)(F)CCC[C@@H]3C[C@H]3C(=O)N(CC(F)F)[C@@H]5C)n(C)c12` [Example 867, (2~{R},5~{R},7~{R})-14-[5-[(3~{S},4~{R})-3-amino-4-methoxy-piperidine-1-carbonyl]-7-methoxy-1-methyl-benzimidazol-2-yl]-3-(2,2-difluoroethyl)-11,11-difluoro-2-methyl-3,13,19-triazatetracyclo[11.5.2.0^ {5,7).0^{16,20}]icosa-1(19),14,16(20),17-tetraen-4-one] reads 0.044 µM; that for `COc1cc(C(=O)N2CC[C@@H](OC)[C@@H](N)C2)cc2nc(-c3cc4ccc5nc4n3CC(F)(F)CCC[C@@H]3C[C@H]3C(=O)N(CC3CC3)[C@@H]5C)n(C)c12` [Example 868, (2~{R},5~{R},7~{R})-14-[5-[(3~{S},4~{R})-3-amino-4-methoxy-piperidine-1-carbonyl]-7-methoxy-1-methyl-benzimidazol-2-yl]-3-(cyclopropylmethyl)-11,11-difluoro-2-methyl-3,13,19-triazatetracyclo[11.5.2.0^ {5,7}.0^{16,20}]icosa-1(19), 14,16(20),17-tetraen-4-one], 0.037 µM; that for `COc1cc(C(=O)N2CC[C@@H](OC)[C@@H](N)C2)cc2nc(-c3cc4ccc5nc4n3CCCCCC[C@](F)(c3ccccn3)C(=O)N[C@@H]5C)n(C)c12` [Example 869, (8~{S},11~{R})-17-[5-[(3~ {S},4~{R})-3-amino-4-methoxy-piperidine-1-carbonyl]-7-methoxy-1-methyl-benzimidazol-2-yl]-8-fluoro-11-methyl-8-(2-pyridyl)-1,10,19-triazatricyclo[10.5.2.0^ {15,18}]nonadeca-12(19), 13,15(18),16-tetraen-9-one], 0.024 µM. Take `COc1cc(C(=O)N2CC[C@@H](OC)[C@@H](N)C2)cc2nc(-c3cc4ccc5nc4n3CCCCCC[C@@](F)(c3ccccn3)C(=O)N[C@@H]5C)n(C)c12` [Example 870, (8~{R},11~{R})-17-[5-[(3~ {S),4~{R})-3-amino-4-methoxy-piperidine-1-carbonyl]-7-methoxy-1-methyl-benzimidazol-2-yl]-8-fluoro-11-methyl-8-(2-pyridyl)-1,10,19-triazatricyclo[10.5.2.0^{15,18}] nonadeca-12(19), 13,15(18),16-tetraen-9-one]: the IC50 was 0.083 µM.

Consider `CO[C@@H]1CCN(C(=O)c2cc(F)c3c(c2)nc(-c2cc4ccc5nc4n2CCCCCCC(c2ccccn2)C(=O)N[C@@H]5C)n3C2CC2)C[C@@H]1N` (some centres unmarked) [Example 871, (11~{R})-17-[5-[(3~{S), 4~{R})-3-amino-4-methoxy-piperidine-1-carbonyl]-1-cyclopropyl-7-fluoro-benzimidazol-2-yl]-11-methyl-8-(2-pyridyl)-1,10,19-triazatricyclo[10.5.2.0^{15,18}] nonadeca-12(19), 13,15(18),16-tetraen-9-one], for which the IC50 is 0.031 µM. In the case of `CO[C@@H]1CCN(C(=O)c2cc(F)c3c(c2)nc(-c2cc4ccc5nc4n2CCCCCC[C@H](c2cccc(Cl)n2)C(=O)N[C@@H]5C)n3C2CC2)C[C@@H]1N` [Example 872, (8~{R},11~{R})-17-[5-[(3~ {S},4~{R})-3-amino-4-methoxy-piperidine-1-carbonyl]-1-cyclopropyl-7-fluoro-benzimidazol-2-yl]-8-(6-chloro-2-pyridyl)-11-methyl-1,10,19-triazatricyclo[10.5.2.0^ {15,18}]nonadeca-12(19), 13,15(18),16-tetraen-9-one], the IC50 amounted to 0.09 µM.

Regarding `CO[C@@H]1CCN(C(=O)c2cc(F)c3c(c2)nc(-c2cc4ccc5nc4n2CCCCCC[C@@H](c2cccc(Cl)n2)C(=O)N[C@@H]5C)n3C2CC2)C[C@@H]1N` [Example 873, (8~{S},11~{R})-17-[5-[(3~{S}, 4~{R})-3-amino-4-methoxy-piperidine-1-carbonyl]-1-cyclopropyl-7-fluoro-benzimidazol-2-yl]-8-(6-chloro-2-pyridyl)-11-methyl-1,10,19-triazatricyclo[10.5.2.0^{15,18}] nonadeca-12(19), 13,15(18),16-tetraen-9-one], the IC50 worked out at 0.12 µM. `[2H]C1([2H])CCCC[C@@H]2C[C@H]2C(=O)N[C@H](C)c2ccc3cc(-c4nc5cc(C(=O)N6CC[C@@H](OC)[C@@H](N)C6)cc(F)c5n4C4CC4)n1c3n2` [Example 874, (2~{R},5~{R},7~{R})-14-[5-[(3~{S},4~{R})-3-amino-4-methoxy-piperidine-1-carbonyl]-1-cyclopropyl-7-fluoro-benzimidazol-2-yl]-12,12-dideuterio-2-methyl-3,13,19-triazatetracyclo[11.5.2.0^ {5,7}.0^{16,20}]icosa-1(19), 14,16(20),17-tetraen-4-one]: the IC50 was found to be 0.029 µM. For `CO[C@@H]1CCN(C(=O)c2cc(F)c3c(c2)nc(-c2cc4ccc5nc4n2CCCCCC[C@@](F)(c2cccc(Cl)n2)C(=O)N[C@@H]5C)n3C2CC2)C[C@@H]1N` [Example 875, (8~{R},11~{R})-17-[5-[(3~{S), 4~{R})-3-amino-4-methoxy-piperidine-1-carbonyl]-1-cyclopropyl-7-fluoro-benzimidazol-2-yl]-8-(6-chloro-2-pyridyl)-8-fluoro-11-methyl-1,10,19-triazatricyclo[10.5.2.0^{15,18}] nonadeca-12(19), 13,15(18),16-tetraen-9-one], the concentration for half-maximal inhibition (IC50) was 0.148 µM.

For the compound `CO[C@@H]1CCN(C(=O)c2cc(F)c3c(c2)nc(-c2cc4ccc5nc4n2CCCCCC[C@](F)(c2cccc(Cl)n2)C(=O)N[C@@H]5C)n3C2CC2)C[C@@H]1N` [Example 876, (8~{S},11~{R})-17-[5-[(3~{S}, 4~{R})-3-amino-4-methoxy-piperidine-1-carbonyl]-1-cyclopropyl-7-fluoro-benzimidazol-2-yl]-8-(6-chloro-2-pyridyl)-8-fluoro-11-methyl-1,10,19-triazatricyclo [10.5.2.0^{15,18}]nonadeca-12(19),13,15(18), 16-tetraen-9-one], the IC50 turned out to be 0.122 µM.

As to `C[C@H]1NC(=O)c2nccnc2CCCCCn2c(-c3nc4cc(C(=O)N5C[C@H](N)[C@@H]6CC[C@H]5C6)c(F)c(F)c4n3C3CC3)cc3ccc1nc32` [Example 877, (2~{R})-17-[5-[(1~{S},4~{R}, 5~{})-4-amino-2-azabicyclo [3.2.1]octane-2-carbonyl]-1-cyclopropyl-6,7-difluoro-benzimidazol-2-yl]-2-methyl-3,6,9,16,22-pentazatetracyclo [14.5.2.0^{5,10}.0^{19,23}] tricosa-1(22),5(10),6,8,17,19(23), 20-heptaen-4-one], the IC50 came out at 0.04 µM.

The record behind these values is US11976083B2, “Inhibitors of peptidylarginine deiminases” (Gilead Sciences, Inc., priority 2020, dated 2024).
